Experimental data as given in US4452741A, “A-39183 Antibiotics and process for production thereof” (Eli Lilly and Company, priority 1983, dated 1984).
In brackets after ≈: the same amount, converted by molar mass. Like-named read-outs stand apart in the source and are kept apart here.

Legend:
[1] = test system: Staphylococcus aureus 3055; assay: agar-dilution MIC; type: cell-based
From the text: (§1) The agar-dilution procedure described by the International Collaborative Study (ICS) group was used to determine MIC values.

[2] = test system: Streptococcus faecalis X66; assay: agar-dilution MIC; type: cell-based; conditions: Enterococcus faecalis
[3] = test system: Staphylococcus aureus 3074; assay: agar-dilution MIC; type: cell-based; conditions: agar-dilution method, benzylpenicillin-resistant
[4] = test system: Staphylococcus aureus 3055; assay: disc-plate zone of inhibition; type: cell-based; conditions: benzylpenicillin-susceptible, 6 mm discs, read-out: Zone Diameter
Experimental: (§2) Agar plates, inoculated with the test organism, were used; 6 mm. discs (0.02 ml. capacity) were saturated from log 2 dilutions of the antibiotic solution. Disc content was 1/5 or 1/50 of the concentration of the solution used, i.e., disc content of […] 30 μg. was obtained from a solution of 1500 μg./ml. concentration.

[5] = test system: Staphylococcus aureus 3074; assay: disc-plate zone of inhibition; type: cell-based; conditions: benzylpenicillin-resistant, 6 mm discs, read-out: Zone Diameter
Experimental: as §2

[6] = test system: Staphylococcus aureus 3130; assay: disc-plate zone of inhibition; type: cell-based; conditions: benzylpenicillin-resistant, methicillin-resistant, 6 mm discs, read-out: Zone Diameter
Experimental: as §2

[7] = test system: Streptococcus pneumoniae Park I; assay: disc-plate zone of inhibition; type: cell-based; conditions: 6 mm discs, read-out: Zone Diameter
Experimental: as §2

[8] = test system: Streptococcus pyogenes C203; assay: disc-plate zone of inhibition; type: cell-based; conditions: 6 mm discs, read-out: Zone Diameter
Experimental: as §2

[9] = test system: Streptococcus sp. (Group D) 9960; assay: disc-plate zone of inhibition; type: cell-based; conditions: 6 mm discs, read-out: Zone Diameter
Experimental: as §2

[10] = test system: Actinomyces israelii W855; assay: MIC, anaerobic bacteria; type: cell-based
[11] = test system: Clostridium perfringens 81; assay: microbe, parasite or virus in culture; type: cell-based
[12] = test system: Bacteroides thetaiotaomicron 1438; assay: MIC, anaerobic bacteria; type: cell-based
From the text: as §1

[13] = test system: Clostridium septicum 1128; assay: MIC, anaerobic bacteria; type: cell-based
From the text: as §1

[14] = test system: Eubacterium aerofaciens 1235; assay: MIC, anaerobic bacteria; type: cell-based; conditions: Collinsella aerofaciens
[15] = test system: Peptococcus asaccharolyticus 1302; assay: MIC, anaerobic bacteria; type: cell-based; conditions: Peptoniphilus asaccharolyticus
[16] = test system: Peptococcus prevoti 1281; assay: MIC, anaerobic bacteria; type: cell-based
[17] = test system: Peptostreptococcus anaerobius 1428; assay: MIC, anaerobic bacteria; type: cell-based
[18] = test system: Peptostreptococcus intermedius 1264; assay: MIC, anaerobic bacteria; type: cell-based
[19] = test system: Propionibacterium acnes 79; assay: MIC, anaerobic bacteria; type: cell-based; conditions: Cutibacterium acnes
[20] = test system: Bacteroides fragilis 111; assay: MIC, anaerobic bacteria; type: cell-based
[21] = test system: Bacteroides fragilis 1877; assay: MIC, anaerobic bacteria; type: cell-based
[22] = test system: Bacteroides fragilis 1936B; assay: MIC, anaerobic bacteria; type: cell-based
[23] = test system: Bacteroides melaninogenicus 1856/28; assay: MIC, anaerobic bacteria; type: cell-based; conditions: Prevotella intermedia
[24] = test system: Bacteroides melaninogenicus 2736; assay: MIC, anaerobic bacteria; type: cell-based
[25] = test system: Bacteroides vulgatis 1211; assay: MIC, anaerobic bacteria; type: cell-based
[26] = test system: Bacteroides corrodens 1874; assay: MIC, anaerobic bacteria; type: cell-based
[27] = test system: Fusobacterium symbiosum 1470; assay: MIC, anaerobic bacteria; type: cell-based
[28] = test system: Fusobacterium necrophorum 6054A; assay: MIC, anaerobic bacteria; type: cell-based
[29] = test system: Bacteroides fragilis 103; assay: MIC, anaerobic bacteria; type: cell-based
[30] = test system: Bacteroides fragilis 104; assay: MIC, anaerobic bacteria; type: cell-based
[31] = test system: Bacteroides fragilis 106; assay: MIC, anaerobic bacteria; type: cell-based
[32] = test system: Bacteroides fragilis 107; assay: MIC, anaerobic bacteria; type: cell-based
[33] = test system: Bacteroides fragilis 108; assay: MIC, anaerobic bacteria; type: cell-based
[34] = test system: Bacteroides fragilis 110; assay: MIC, anaerobic bacteria; type: cell-based
[35] = test system: Bacteroides fragilis 112; assay: MIC, anaerobic bacteria; type: cell-based
[36] = test system: Bacteroides fragilis 113; assay: MIC, anaerobic bacteria; type: cell-based
[37] = test system: Bacteroides fragilis 1451; assay: MIC, anaerobic bacteria; type: cell-based
[38] = test system: Bacteroides fragilis 1470; assay: MIC, anaerobic bacteria; type: cell-based
[39] = test system: Bacteroides fragilis 2; assay: MIC, anaerobic bacteria; type: cell-based
[40] = test system: Bacteroides fragilis 9; assay: MIC, anaerobic bacteria; type: cell-based
[41] = test system: Bacteroides fragilis 62; assay: MIC, anaerobic bacteria; type: cell-based
[42] = test system: Bacteroides vulgatis 1563; assay: MIC, anaerobic bacteria; type: cell-based
[43] = test system: Bacteroides thetaiotaomicron 1900A; assay: MIC, anaerobic bacteria; type: cell-based
[44] = electrometric titration; type: physicochemical; conditions: 66% dimethylformamide in water
Experimental: Antibiotic A-39183 factor A is a yellow, crystalline solid, having a molecular weight of 598.58, as determined by mass spectrometry, and an approximate elemental analysis as follows: 67.95% carbon, 5.20% hydrogen, and 26.79% oxygen. […] A-39183 factor A has the following specific rotation: [α]D^25 +18.9° (c 9.52, trifluoroethanol).
Antibiotic A-39183 factor b is a red, crystalline solid having a molecular weight of 580, as determined by mass spectrometry, and an approximate elemental analysis as follows: 70.56% carbon, 4.97% hydrogen, and 24.57% oxygen. […] A-39183 factor B has the following specific rotation: [α]D^25 +576.9° (c 8.85, trifluoroethanol).

[45] = solubility; type: physicochemical; conditions: organic solvents
[46] = Bacteroides thetaiotaomicron, 1438, Bacteroides thetaiotaomicron 1438, first listing, read-out: MIC
[47] = Bacteroides fragilis, 111, Bacteroides fragilis 111, first listing
[48] = Bacteroides fragilis, 1877, Bacteroides fragilis 1877, first listing
[49] = Eikenella corrodens, 1874, Bacteroides corrodens 1874, first listing

## CC(=O)c1c(C)cc(O)c2c(O)c3c(O)cccc3c(-c3c4c(c(O)c5c(O)cccc35)C(=O)CC(C)(O)C4C(C)=O)c12 (centres unmarked) [A-39183 factor B]
[1]
  MIC: 0.5 µg/mL (≈ 0.861 µM)
[2]
  MIC: 4 µg/mL (≈ 6.89 µM)
[3]
  MIC: 4 µg/mL (≈ 6.89 µM)
[4]; 30 μg/disc
  zone of inhibition at 30 µg/disc: 0 mm
[4]; 300 μg/disc
  zone of inhibition at 300 µg/disc: 0 mm
[5]; 30 μg/disc
  zone of inhibition at 30 µg/disc: 14.8 mm
[5]; 300 μg/disc
  zone of inhibition at 300 µg/disc: 15.8 mm
[6]; 30 μg/disc
  zone of inhibition at 30 µg/disc: 13.4 mm
[6]; 300 μg/disc
  zone of inhibition at 300 µg/disc: 14 mm
[7]; 30 μg/disc
  zone of inhibition at 30 µg/disc: 0 mm
[7]; 300 μg/disc
  zone of inhibition at 300 µg/disc: 9.1 mm
[8]; 30 μg/disc
  zone of inhibition at 30 µg/disc: 8 mm
[8]; 300 μg/disc
  zone of inhibition at 300 µg/disc: 10 mm
[9]; 30 μg/disc
  zone of inhibition at 30 µg/disc: 0 mm
[9]; 300 μg/disc
  zone of inhibition at 300 µg/disc: 9.1 mm
[10]
  MIC: ≤ 0.5 µg/mL
[11]
  MIC: 8 µg/mL (≈ 13.8 µM)
[12]; [46]
  MIC: 16 µg/mL (≈ 27.6 µM)
[12]; Bacteroides thetaiotaomicron, 1438, Bacteroides thetaiotaomicron 1438, second listing
  MIC: 4 µg/mL (≈ 6.89 µM)
[13]
  MIC: 2 µg/mL (≈ 3.44 µM)
[14]
  MIC: 8 µg/mL (≈ 13.8 µM)
[15]
  MIC: 32 µg/mL (≈ 55.1 µM)
[16]
  MIC: 8 µg/mL (≈ 13.8 µM)
[17]
  MIC: 8 µg/mL (≈ 13.8 µM)
[18]
  MIC: 2 µg/mL (≈ 3.44 µM)
[19]
  MIC: 2 µg/mL (≈ 3.44 µM)
[20]; [47]
  MIC: ≤ 0.5 µg/mL
[20]; Bacteroides fragilis, 111, Bacteroides fragilis 111, second listing
  MIC: 4 µg/mL (≈ 6.89 µM)
[21]; [48]
  MIC: 1 µg/mL (≈ 1.72 µM)
[21]; Bacteroides fragilis, 1877, Bacteroides fragilis 1877, second listing
  MIC: 4 µg/mL (≈ 6.89 µM)
[22]
  MIC: 2 µg/mL (≈ 3.44 µM)
[23]
  MIC: > 128 µg/mL
[24]
  MIC: 4 µg/mL (≈ 6.89 µM)
[25]
  MIC: 2 µg/mL (≈ 3.44 µM)
[26]; [49]
  MIC: 1 µg/mL (≈ 1.72 µM)
[26]; Eikenella corrodens, 1874, Bacteroides corrodens 1874, second listing
  MIC: 4 µg/mL (≈ 6.89 µM)
[27]
  MIC: 8 µg/mL (≈ 13.8 µM)
[28]
  MIC: ≤ 0.5 µg/mL
[29]
  MIC: 4 µg/mL (≈ 6.89 µM)
[30]
  MIC: 4 µg/mL (≈ 6.89 µM)
[31]
  MIC: 4 µg/mL (≈ 6.89 µM)
[32]
  MIC: 4 µg/mL (≈ 6.89 µM)
[33]
  MIC: 4 µg/mL (≈ 6.89 µM)
[34]
  MIC: 4 µg/mL (≈ 6.89 µM)
[35]
  MIC: 4 µg/mL (≈ 6.89 µM)
[36]
  MIC: 4 µg/mL (≈ 6.89 µM)
[37]
  MIC: 4 µg/mL (≈ 6.89 µM)
[38]
  MIC: 4 µg/mL (≈ 6.89 µM)
[39]
  MIC: 2 µg/mL (≈ 3.44 µM)
[40]
  MIC: 4 µg/mL (≈ 6.89 µM)
[41]
  MIC: 1 µg/mL (≈ 1.72 µM)
[42]
  MIC: 8 µg/mL (≈ 13.8 µM)
[43]
  MIC: 16 µg/mL (≈ 27.6 µM)
[44]; pH 4.03, 66% dimethylformamide in water, initial pH 4.03, read-out: pKa (first titratable group)
  pKa: ~6.68
[44]; pH 4.03, 66% dimethylformamide in water, initial pH 4.03, read-out: pKa (second titratable group)
  pKa: ~8.42
[45]
  solubility (soluble): soluble in the same solvents as factor A

## CC(=O)C1c2c(c(O)c3c(O)cccc3c2-c2c3c(c(O)c4c(O)cccc24)C(=O)CC(C)(O)C3C(C)=O)C(=O)CC1(C)O (centres unmarked) [A-39183 factor A]
[1]; agar-dilution method, benzylpenicillin-susceptible, read-out: MIC
  MIC: 32 µg/mL (≈ 53.5 µM)
[2]; agar-dilution method, read-out: MIC
  MIC: 32 µg/mL (≈ 53.5 µM)
[10]
  MIC: ≤ 0.5 µg/mL
[11]
  MIC: 32 µg/mL (≈ 53.5 µM)
[12]; [46]
  MIC: 16 µg/mL (≈ 26.7 µM)
[13]
  MIC: 16 µg/mL (≈ 26.7 µM)
[14]
  MIC: 32 µg/mL (≈ 53.5 µM)
[15]
  MIC: 64 µg/mL (≈ 107 µM)
[16]
  MIC: 32 µg/mL (≈ 53.5 µM)
[17]
  MIC: 64 µg/mL (≈ 107 µM)
[18]
  MIC: 32 µg/mL (≈ 53.5 µM)
[19]
  MIC: 32 µg/mL (≈ 53.5 µM)
[20]; [47]
  MIC: 32 µg/mL (≈ 53.5 µM)
[21]; [48]
  MIC: 32 µg/mL (≈ 53.5 µM)
[22]
  MIC: 32 µg/mL (≈ 53.5 µM)
[23]
  MIC: > 128 µg/mL
[24]
  MIC: 16 µg/mL (≈ 26.7 µM)
[25]
  MIC: 32 µg/mL (≈ 53.5 µM)
[26]; [49]
  MIC: 32 µg/mL (≈ 53.5 µM)
[27]
  MIC: 64 µg/mL (≈ 107 µM)
[28]
  MIC: 16 µg/mL (≈ 26.7 µM)
[44]; pH 4.81, 66% dimethylformamide in water, initial pH 4.81, read-out: pKa (first titratable group)
  pKa: ~6.75
[44]; pH 4.81, 66% dimethylformamide in water, initial pH 4.81, read-out: pKa (second titratable group)
  pKa: ~8.43
[45]
  solubility (soluble): soluble in acetone, ethyl acetate, chloroform, dimethylformamide, dimethyl sulfoxide, and trifluoroethanol
